Measured values: PubChem BioAssay AID2060489 (Molecular Pharmacology Branch, DTP, NCI, 2025)
Each block holds one compound with its values, some of them ahead of it.

System: 922993-354-T-J3-PDC complex spheroids, viability
Assay: Anticancer human tumor 922993-354-T-J3-PDC patient-derived endometrial carcinoma cell line growth inhibition [GQUAD]
Conditions: for IC50: curve of first compound; for viability, T/C: stronger effect = lower value
Outline: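 Tumor cells were grown as complex spheroids with HUVEC endothelial cells and mesenchymal stem cells as stroma. G-quadruplex stabilizers were combined with targeted agents over half-log dilutions from near the clinical Cmax, or from 10 microM.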

[1] = second compound 0.0316 µM, first compound 0.0316 µM
[2] = second compound 0.0316 µM, first compound 0.1 µM
[3] = second compound 0.0316 µM, first compound 0.316 µM
[4] = second compound 0.0316 µM, first compound 1 µM
[5] = second compound 0.0316 µM, first compound 3.16 µM
[6] = second compound 0.0316 µM, first compound 10 µM
[7] = second compound 0.1 µM, first compound 0.0316 µM
[8] = second compound 0.1 µM, first compound 0.1 µM
[9] = second compound 0.1 µM, first compound 0.316 µM
[10] = second compound 0.1 µM, first compound 1 µM
[11] = second compound 0.1 µM, first compound 3.16 µM
[12] = second compound 0.1 µM, first compound 10 µM
[13] = second compound 0.316 µM, first compound 0.0316 µM
[14] = second compound 0.316 µM, first compound 0.1 µM
[15] = second compound 0.316 µM, first compound 0.316 µM
[16] = second compound 0.316 µM, first compound 1 µM
[17] = second compound 0.316 µM, first compound 3.16 µM
[18] = second compound 0.316 µM, first compound 10 µM
[19] = second compound 1 µM, first compound 0.0316 µM
[20] = second compound 1 µM, first compound 0.1 µM
[21] = second compound 1 µM, first compound 0.316 µM
[22] = second compound 1 µM, first compound 1 µM
[23] = second compound 1 µM, first compound 3.16 µM
[24] = second compound 1 µM, first compound 10 µM
[25] = second compound 3.16 µM, first compound 0.0316 µM
[26] = second compound 3.16 µM, first compound 0.1 µM
[27] = second compound 3.16 µM, first compound 0.316 µM
[28] = second compound 3.16 µM, first compound 1 µM
[29] = second compound 3.16 µM, first compound 3.16 µM
[30] = second compound 3.16 µM, first compound 10 µM
[31] = second compound 10 µM, first compound 0.0316 µM
[32] = second compound 10 µM, first compound 0.1 µM
[33] = second compound 10 µM, first compound 0.316 µM
[34] = second compound 10 µM, first compound 1 µM
[35] = second compound 10 µM, first compound 3.16 µM
[36] = second compound 10 µM, first compound 10 µM
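Also: spheroids exposed to compounds for seven days.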
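For viability, T/C in this document: 100% = DMSO vehicle control viability.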

IC50 (second compound 0.0316 µM): > 10000 nM | IC50 (second compound 0.1 µM): > 10000 nM | IC50 (second compound 0.316 µM): 89.4 nM | IC50 (second compound 1 µM): < 31.6 nM | IC50 (second compound 3.16 µM): < 31.6 nM | IC50 (second compound 10 µM): < 31.6 nM
Structure (SMILES): C#Cc1c(F)ccc2cc(O)cc(-c3ncc4c(N5CC6CCC(C5)N6)nc(OCC56CCCN5CC(F)C6)nc4c3F)c12 (stereo unspecified) + Cc1cnc(CNC(=O)c2c(=O)c3ccc(N4CCCN(C)CC4)nc3n3c2sc2ccccc23)cn1
viability, T/C [1]: 75.3% | viability, T/C [2]: 81.8% | viability, T/C [3]: 74.4% | viability, T/C [4]: 70% | viability, T/C [5]: 86.9% | viability, T/C [6]: 56.8% | viability, T/C [7]: 64.3% | viability, T/C [8]: 70.2% | viability, T/C [9]: 56% | viability, T/C [10]: 51.6% | viability, T/C [11]: 54% | viability, T/C [12]: 61.1% | viability, T/C [13]: 61.9% | viability, T/C [14]: 51.4% | viability, T/C [15]: 42.5% | viability, T/C [16]: 37% | viability, T/C [17]: 41.2% | viability, T/C [18]: 50.3% | viability, T/C [19]: 42.1% | viability, T/C [20]: 45.2% | viability, T/C [21]: 38.4% | viability, T/C [22]: 36.2% | viability, T/C [23]: 50.2% | viability, T/C [24]: 44.5% | viability, T/C [25]: 46.6% | viability, T/C [26]: 43.8% | viability, T/C [27]: 42.2% | viability, T/C [28]: 44.6% | viability, T/C [29]: 45.9% | viability, T/C [30]: 42.5% | viability, T/C [31]: 40.5% | viability, T/C [32]: 38.7% | viability, T/C [33]: 39.3% | viability, T/C [34]: 44.8% | viability, T/C [35]: 40.3% | viability, T/C [36]: 34.2%

IC50 (second compound 0.0316 µM): > 10000 nM | IC50 (second compound 0.1 µM): > 10000 nM | IC50 (second compound 0.316 µM): < 31.6 nM | IC50 (second compound 1 µM): < 31.6 nM | IC50 (second compound 3.16 µM): < 31.6 nM | IC50 (second compound 10 µM): < 31.6 nM
Structure (SMILES): O=c1[nH]cc(F)c(=O)[nH]1 + Cc1cnc(CNC(=O)c2c(=O)c3ccc(N4CCCN(C)CC4)nc3n3c2sc2ccccc23)cn1
viability, T/C [1]: 85.8% | viability, T/C [2]: 69.8% | viability, T/C [3]: 79.3% | viability, T/C [4]: 96.3% | viability, T/C [5]: 82.1% | viability, T/C [6]: 57.4% | viability, T/C [7]: 65.7% | viability, T/C [8]: 49.3% | viability, T/C [9]: 49.7% | viability, T/C [10]: 61.5% | viability, T/C [11]: 63.1% | viability, T/C [12]: 60.1% | viability, T/C [13]: 50.6% | viability, T/C [14]: 47.1% | viability, T/C [15]: 45.5% | viability, T/C [16]: 42.8% | viability, T/C [17]: 48.7% | viability, T/C [18]: 49.3% | viability, T/C [19]: 54.1% | viability, T/C [20]: 38.2% | viability, T/C [21]: 40.8% | viability, T/C [22]: 42.6% | viability, T/C [23]: 50% | viability, T/C [24]: 44.9% | viability, T/C [25]: 46% | viability, T/C [26]: 50.6% | viability, T/C [27]: 43.3% | viability, T/C [28]: 53.6% | viability, T/C [29]: 51.5% | viability, T/C [30]: 46.4% | viability, T/C [31]: 44.2% | viability, T/C [32]: 44% | viability, T/C [33]: 43.7% | viability, T/C [34]: 37.2% | viability, T/C [35]: 47.4% | viability, T/C [36]: 46.1%

IC50 (second compound 0.0316 µM): 11.3 nM | IC50 (second compound 0.1 µM): 5.27 nM | IC50 (second compound 0.316 µM): < 0.999 nM | IC50 (second compound 1 µM): 5.12 nM | IC50 (second compound 3.16 µM): < 0.999 nM | IC50 (second compound 10 µM): < 0.999 nM
Structure (SMILES): CCc1c2c(nc3ccc(O)cc13)-c1cc3c(c(=O)n1C2)COC(=O)[C@]3(O)CC + Cc1cnc(CNC(=O)c2c(=O)c3ccc(N4CCCN(C)CC4)nc3n3c2sc2ccccc23)cn1
viability, T/C (second compound 0.0316 µM, first compound 0.000999 µM): 85.3% | viability, T/C (second compound 0.0316 µM, first compound 0.00316 µM): 74.5% | viability, T/C (second compound 0.0316 µM, first compound 0.00999 µM): 54.5% | viability, T/C [1]: 25.2% | viability, T/C (second compound 0.0316 µM, first compound 0.0999 µM): 24.4% | viability, T/C [3]: 31.6% | viability, T/C (second compound 0.1 µM, first compound 0.000999 µM): 66.8% | viability, T/C (second compound 0.1 µM, first compound 0.00316 µM): 63.4% | viability, T/C (second compound 0.1 µM, first compound 0.00999 µM): 33.2% | viability, T/C [7]: 23.4% | viability, T/C (second compound 0.1 µM, first compound 0.0999 µM): 29.4% | viability, T/C [9]: 33.4% | viability, T/C (second compound 0.316 µM, first compound 0.000999 µM): 53.9% | viability, T/C (second compound 0.316 µM, first compound 0.00316 µM): 43.3% | viability, T/C (second compound 0.316 µM, first compound 0.00999 µM): 32.2% | viability, T/C [13]: 26.3% | viability, T/C (second compound 0.316 µM, first compound 0.0999 µM): 45.5% | viability, T/C [15]: 52.1% | viability, T/C (second compound 1 µM, first compound 0.000999 µM): 48.7% | viability, T/C (second compound 1 µM, first compound 0.00316 µM): 60.6% | viability, T/C (second compound 1 µM, first compound 0.00999 µM): 43.5% | viability, T/C [19]: 37% | viability, T/C (second compound 1 µM, first compound 0.0999 µM): 42.1% | viability, T/C [21]: 38.1% | viability, T/C (second compound 3.16 µM, first compound 0.000999 µM): 44.7% | viability, T/C (second compound 3.16 µM, first compound 0.00316 µM): 44% | viability, T/C (second compound 3.16 µM, first compound 0.00999 µM): 46.5% | viability, T/C [25]: 49% | viability, T/C (second compound 3.16 µM, first compound 0.0999 µM): 47.4% | viability, T/C [27]: 38.8% | viability, T/C (second compound 10 µM, first compound 0.000999 µM): 37.6% | viability, T/C (second compound 10 µM, first compound 0.00316 µM): 49.3% | viability, T/C (second compound 10 µM, first compound 0.00999 µM): 45.3% | viability, T/C [31]: 44.1% | viability, T/C (second compound 10 µM, first compound 0.0999 µM): 45% | viability, T/C [33]: 26%
